In patent US7524490B2, “Clusterin-mediated inhibition of apoptosis via stromal bone marrow cell delivery to a cardiac site” (Board of Regents of the University of Texas System, priority 2004, dated 2009):

What was measured:
[1] = tested on: vascular smooth muscle cells; test: Oxysterol-induced internucleosomal DNA fragmentation and apoptosis in vascular smooth muscle cells; type: cell-based
From the text: FIG. 11 is an ethedium bromide-stained agarose gel loaded with DNA samples extracted from clusterin-transfected or non-transfected vascular smooth muscle cells.
Detection of apoptotic cells. Determination of apoptosis needs a combination of techniques in morphology and biochemistry. Apoptosis was detected using the following six techniques: 1) Light microscopy; 2) Fluorescent confocal scanning or non-confocal microscopy, 3). In situ labeling of DNA 3′ ends (TUNEL technique), 4) Electron microscopy, 5) DNA agarose gel electrophoresis, and 6) Flow cytometry. These techniques are describe more particularly as follows: 1) Light microscopy was applied routinely to analyze morphological changes of vascular cells. 2) Fluorescent confocal scanning or non-confocal microscopy was used to characterize cytoskeletal and nuclear alterations after immunofluorescent staining. DAPI or Hoechst dye was used for nuclear morphology under UV excitation. 3). […] The signal of TdT-mediated dUTP nick end labeling (TUNEL) was detected by an anti-digoxigenin antibody conjugated with peroxidase, a reporter enzyme which catalytically generates a brown color product from the chromogenic substrate diaminobenzidine. […] DNA was precipitated in ethanol, and analyzed for fragmentation by 2% agarose gel electrophoresis with ethidium bromide. […] In this study, cell proliferation and apoptosis were analyzed by flow cytometry. […]

KG-293 cells = test: TNF-α-induced apoptosis in KG-293 cells with tetracycline-induced intracellular clusterin; type: cell-based, human
From the text: Transfection with clusterin cDNA. Initially a plasmid was constructed that contains a truncated form of clusterin cDNA with deletion of the sequence responsible for cross-membrane transport. Transfection of human embryonic 293 cell line with this plasmid leads to intracellular overexpression of a non-secreted form of clusterin. The clusterin gene is under control of a CMV promoter with tetracycline-sensitive elements. […] This plasmid will be used to deliver the truncated clusterin gene into stem cells. The cells will be selected using G418 as the plasmid contains a neomycin-resistant gene.
A plasmid pKS7 that contains a truncated clusterin cDNA with deletion of the transmembrane domain and a neomycin-resistant gene was constructed. The truncated clusterin gene was under regulation by a CMV promoter with tetracycline-responding elements. Stable transfection of the human embryonic kidney cell line T-293 with pKS7 generates a stable cell line (KG-293) with clusterin overexpressed. As shown by Western blot, under stimulation with tetracycline (1 μg/ml) for 24 hours, KG-293 cells but not their precursors, T-293 cells, produced an intracellular form of clusterin at much higher levels (FIG. 7A). […] KG-293 cells overexpressing the intracellular form of clusterin also underwent dramatic alterations in morphology and proliferation. […]

[2] = tested on: murine cardiac stem cells; test: Apoptosis of cardiac stem cells induced by serum starvation, with or without clusterin; type: cell-based, mouse; conditions: clusterin-containing DMEM medium, many cells died without clusterin
Description: Treatment of stem cells in culture. An in vitro system was first employed to examine the protective effects of clusterin on stem cells. Stem cells were treated with clusterin at different concentrations in the cultures with or without proinflammatory cytokines or T lymphocytes pre-activated by mitogens. After 2-4 days of stimulation, cell survival and apoptosis were examined using a combination of techniques including flow cytometry, fluorescent microscopy, and radioactive isotope labeling, as described below. Control experiments were set up using other types of proteins, such as bovine albumin.
Detection of apoptotic cells. Determination of apoptosis needs a combination of techniques in morphology and biochemistry. Apoptosis was detected using the following six techniques: 1) Light microscopy; 2) Fluorescent confocal scanning or non-confocal microscopy, 3). […] The signal of TdT-mediated dUTP nick end labeling (TUNEL) was detected by an anti-digoxigenin antibody conjugated with peroxidase, a reporter enzyme which catalytically generates a brown color product from the chromogenic substrate diaminobenzidine. […] DNA was precipitated in ethanol, and analyzed for fragmentation by 2% agarose gel electrophoresis with ethidium bromide. […] In this study, cell proliferation and apoptosis were analyzed by flow cytometry. […]

[3] = Dot blotting of clusterin binding to filter-coated lipids; parameters: species or system mouse; conditions: 10 μg/well serum proteins from TG and WT mice, 30 min, room temperature; anti-clusterin detection
Description: As a component of HDL, clusterin helps transport cholesterol crossing the cellular membrane. In atherosclerotic lesions, cholesterol-derived oxysterols accumulate and exert apoptotic effects on vascular cells. Usually, the cytotoxicity of oxysterols including 7-ketocholesterol is much greater than that of free cholesterol. […] Free cholesterol and 7-ketocholesterol dissolved in ethanol were loaded to a filter in a 96-well dot blotting device. 10 μg/well proteins from three TG and WT serum samples were incubated in the wells for 30 min at room temperate. After washing with PBS, the filter was incubated with anti-clusterin antibody (1:200), and then anti-goat IgG conjugated with peroxidase. The dot blotting was developed using an ECL kit. Furthermore, an increased binding activity to the oxysterol in the serum from clusterin transgenic mice, compared to these in wild type mouse serum (FIG. 10), was detected. Thus, clusterin appears to have a higher affinity to some oxidized cholesterol derivatives.

stem cells = test: Clusterin pretreatment of stem cells in serum-free conditioned medium; type: cell-based, mouse; conditions: 20-30 μg/ml clusterin, 24 hours, preliminary data
Description: Stem cell culture and treatment with oxysterols and cytokines. Mouse stem cells were used in this in vitro study. Two groups of proapoptotic agents were used to induce apoptosis of stem cells: oxysterols and cytokines. In group 1, stem cells were treated with 7-ketocholesterol (7-KC) and 25-OH-cholesterol (25-OH—C), two oxysterols known to exist in abundantly in atherosclerotic lesions and to induce apoptosis in cardiovascular cells. Free cholesterol was used as controls. In group 2, stem cells were incubated with a combination of tumor necrosis factor (TNF)-α and interferon (IFN)-γ, two cytokines previously shown to induce apoptosis of stem cells. In addition, to determine whether the Fas death-signaling pathway is involved in apoptosis of stem cells, stem cells were treated with recombinant Fas ligand in the presence of IFN-γ.
Clusterin treatment. In order to determine whether clusterin prevents apoptosis of stem cells, stem cells were pretreated with clusterin purified from serum or synthesized by use of recombinant technology. Stem cells were cultured in a serum-free, conditioned medium supplemented with 20-30 μg/ml clusterin for 24 hours. The preliminary data indicated no apoptosis under the culture condition with clusterin. […] Cells were analyzed for apoptosis using the following methods after treatment. […]

[4] = tested on: aldehyde dehydrogenase-1 (ALDH-1); test: Induction of aldehyde dehydrogenase expression in smooth muscle cells (immunoblot); type: cell-based, murine; conditions: recombinant human clusterin 0, 5, 25, 50 μg/ml; concentration-dependent
Description: FIG. 13 is an immunoblot showing induction of aldehyde dehydrogenase-1 (ALDH-1) in murine vascular smooth muscle cells by treatment with recombinant human clusterin (apoJ) at different concentrations (lane 1, 0 μg/ml; lane 2, 5 μg/ml; lane 3, 25 μg/ml; lane 4, 50 μg/ml).
Aldehyde dehydrogenase expression and vitamin A metabolism were investigated to determine whether clusterin exerts its protective effect through upregulation of genes involved in cellular detoxification. Aldehyde dehydrogenases (ALDHs) are a group of intracellular enzymes that mediate NAD-coupled oxidation of aldehydes to carboxylic acids. ALDH is probably most widely known for its role in clearance of acetaldehyde from beverage alcohol by conversion to acetic acid. This enzymes is also involved in retinol metabolism and mediates vitamin A function. Members of the ALDH family are diversed; some have broad substrate specificities (ALDH1 and ALDH2) and other ALDHs are tailored to specific reactions of intermediary metabolism (e.g., methyl malonic semialdehyde dehydrogenase in branched-chain amino acid metabolism). ALDH1 is primarily found in the liver and in adult stem cells including hematopoietic stem cells. […]

CC(C)CCC[C@@H](C)[C@H]1CC[C@H]2[C@@H]3C(=O)C=C4C[C@@H](O)CC[C@]4(C)[C@H]3CC[C@]12C [7-ketocholesterol, reference compound]
induction of apoptosis of vascular smooth muscle cells (internucleosomal DNA fragmentation) ([1]; exposure to oxysterol): can trigger apoptosis

TNF-α [reference compound]
induction of apoptosis in control KG-293 cells (KG-293 cells; TNF-α 10 ng/ml for 24 and 48 hours, cells not exposed to tetracycline): markedly induced apoptosis

clusterin: sulfated, heterodimeric glycoprotein containing two 40 kDa chains joined by a five disulfide bond motif; native or recombinant
effect on oxysterol-induced DNA fragmentation and apoptosis in vascular cells ([1]; overexpression of clusterin by cDNA transfection): markedly reduces the DNA fragmentation and apoptosis | effect on the pro-apoptotic effect of TNF-α (KG-293 cells; KG-293 cells with intracellular overexpression of truncated clusterin (pKS7, tetracycline 1 μg/ml)): significantly attenuated | apoptosis of cardiac stem cells (morphology, acridine orange/ethidium bromide staining) [2]: no sign of apoptosis | binding to 7-ketocholesterol versus free cholesterol (dot blot intensity) [3]: much higher intensities than free cholesterol | apoptosis of stem cells under culture condition with clusterin (stem cells): no apoptosis | expression of ALDH in smooth muscle cells [4]: significantly induced expression of ALDH
